We go through 2 compounds from patent US20110034472A1, “Novel Compounds for Treatment of Cancer and Disorders Associated With Angiogenesis Function” (UNIVERSITY OF SOUTHERN CALIFORNIA, priority 2004, published 2011).

Test [1] has as its system MDA-MB-435 cells. Description: MTT assay, continuous drug exposure for 48 hours (Table 3). The test is classed as cell-based, human. To be noted: Homo sapiens; for CC50: MDA-MB-435; for IC80: MDA-MB-435, read-out: CC80.
For test [2] the following is noted: drugs with known mechanisms of cell cycle regulation; cited from earlier work.
In test [3] the test system is PC3 prostate cancer cells. Description: MTT cytotoxicity assay, PC3. Type of test: cell-based. Conditions: Homo sapiens; PC3; 72 hours continuous exposure; read-out: IC50 values (mean ± SD). How it is done: (§1) The sensitivity of a panel of seven human cancer cell lines to SC144 was assessed by MTT-assay. […] The sensitivity towards SC144 was time- and dose-dependent.
(§2) Cytotoxicity was assessed by a 3-(4,5-dimethylthiazol-2-yl)-2,5-diphenyltetrazolium bromide assay as previously described (Carmichael et al. (1987) Cancer Res. 47:936-42). Briefly, cells were seeded in 96-well microtiter plates (PC3 and DU145 at 5,000 cells/well and LNCaP at 10,000 cells/well; breast and ovarian cells at 4,000 cells/well) and allowed to attach. Cells were subsequently treated with a continuous exposure to the corresponding drug for 72 hours. A 3-(4,5-dimethylthiazol-2-yl)-2,5-diphenyltetrazolium bromide solution (at a final concentration of 0.5 mg/mL) was added to each well and cells were incubated for 4 hours at 37° C. After removal of the medium, DMSO was added and the absorbance was read at 570 nm. All assays were done in triplicate. The IC50 was then determined for each drug from a plot of log(drug concentration) versus percentage of cell kill.

The test system of test [4] is DU145 prostate cancer cells. Put plainly: MTT cytotoxicity assay, DU145. Type of test: cell-based. To be noted: Homo sapiens, DU-145, 72 hours continuous exposure, read-out: IC50 values (mean ± SD). Here is the method:
as §1, §2
Background: Tetrazolium assays rely on reduction of a dye to a coloured formazan, in cell work by metabolically active cells.

Test [5] concerns HEY ovarian cancer cells. Put plainly: MTT cytotoxicity assay, HEY. To be noted: Homo sapiens; HEY; 72 hours continuous exposure; read-out: IC50 values (mean ± SD). Type of test: cell-based, human. Here is the method: as §1, §2
Test [6] has as its system MCF-7 breast cancer cells. Description: MTT cytotoxicity assay, MCF-7. The test is classed as cell-based, human. Conditions: Homo sapiens, MCF7; MCF-7; 72 hours continuous exposure; read-out: IC50 values (mean ± SD). Here is the method:
as §1, §2

Test [7] deals with MDA-MB-435 breast cancer cells. Put plainly: MTT cytotoxicity assay, MDA-MB-435. The test is classed as cell-based, human. Conditions: Homo sapiens, 72 hours continuous exposure, read-out: IC50 values (mean ± SD). Here is the method: as §1, §2
(§3) Cytotoxicity was assessed by a 3-(4,5-dimethylthiazol-2-yl)-2,5-diphenyltetrazolium bromide (MTT) assay as previously described.^9 Briefly, cells were seeded in 96-well microtiter plates and allowed to attach. Cells were subsequently treated with continuous exposure to the corresponding drug for 72 h. An MTT solution (at a final concentration of 0.5 mg/mL) was added to each well, and cells were incubated for 4 h at 37° C. After removal of the medium, DMSO was added and the absorbance was read at 570 nm. All assays were done in triplicate. The IC50 was then determined for each drug from a plot of log (drug concentration) versus percentage of cells killed.

The subject of test [8] is MDA-MB-468 breast cancer cells. Description: MTT cytotoxicity assay, MDA-MB-468. Type of test: cell-based. Conditions: Homo sapiens, 72 hours continuous exposure, read-out: IC50 values (mean ± SD). Here is the method:
as §1, §2

Test [9] relates to LNCaP prostate cancer cells. Description: MTT cytotoxicity assay, LNCaP. Type of test: cell-based. To be noted: Homo sapiens, 72 hours continuous exposure, read-out: IC50 values (mean ± SD). Here is the method: as §2, §3
The test system of test [10] is MDA-MB-435 cells. Put plainly: Annexin V/PI apoptosis analysis, SC144 and CPT. The test is classed as cell-based, human. Conditions: 48 h; IC80. The source says: Cells were stained with annexin V/PI and analyzed by flow cytometry. Cells in the bottom left quadrant of each panel (Annexin V-negative, PI-negative) are viable, whereas cells in the bottom right quadrant (Annexin V-positive, PI-negative) are in the early stages of apoptosis, and cells in the top right quadrant (Annexin V-positive, PI-positive) are in later stages of apoptosis and necrosis.
An early event in apoptotic cell death is the translocation of the phosphatidyl-serine residues to the outer part of the cell membrane. This event precedes nuclear breakdown, DNA fragmentation, the appearance of most apoptosis-associated molecules, and is readily measured by annexin V binding assay. By this method, SC144 was compared with CPT.

Test [11] has as its system PC3 and DU145 cells. Description: Apoptosis by sub-G0/G1 population (flow cytometry). Conditions: IC80 dose for 72 hours. The test is classed as cell-based, human. Here is the method: Apoptotic cell population increased with time in PC3 and DU145 treated with SC21 and CPT.
SC21 and CPT-induced apoptosis was measured by flow cytometry (FIG. 18). SC21 at an IC80 dose for 72 hours induced 12% to 15% apoptosis as measured by calculating sub-G0/G1 population. […] An early event in apoptotic cell death is the translocation of the phosphatidyl-serine residues to the outer region of the cell membrane. This event precedes nuclear breakdown, DNA fragmentation, the appearance of most apoptosis-associated molecules, and is readily measured by annexin V binding assay. By this method, we compared SC21 with CPT.
(In flow cytometry, cells or beads pass a laser one at a time.)

Test [12] deals with DU145 cells. Put plainly: Annexin V/propidium iodide apoptosis assay, DU145. The test is classed as cell-based, human. To be noted: 72 hours exposure, IC80. Here is the method:
FIG. 19 illustrates apoptosis analysis of DU145 cells treated with SC21 or CPT (IC80). Cells were treated with SC21 or CPT for 24, 48, and 72 h, harvested, stained with annexin V/propidium iodide and analyzed by flow cytometry. Untreated control cells (24 and 48 h) were also included in the analysis. Annexin VFITC signals are recorded in FL1-H or […] and propidium iodide in FL2-H or […]. Cells in the bottom left quadrant (annexin V-negative, propidium iodide-negative) are viable, whereas cells in the right quadrant (annexin V-positive, propidium iodide-negative) are in the early stages of apoptosis, and the cells in the top right quadrant (annexin V-positive, propidium iodide-positive) are in later stages of apoptosis and necrosis.
To quantify drug-induced apoptosis, annexin V/propidium iodide staining was done followed by flow cytometry. […] The resulting fluorescence (FLH-1 channel for green fluorescence and FLH-2 channel for red fluorescence) was measured by flow cytometry using a FACScan flow cytometer (Becton Dickinson).
SC21 and CPT-induced apoptosis was measured by flow cytometry (FIG. 18). SC21 at an IC80 dose for 72 hours induced 12% to 15% apoptosis as measured by calculating sub-G0/G1 population. […] This event precedes nuclear breakdown, DNA fragmentation, the appearance of most apoptosis-associated molecules, and is readily measured by annexin V binding assay. […]

Usually CC50 stands for the concentration that lowers cell viability or growth by half. Lower therefore signals harm at low concentration. On to `O=c1[nH]cc(F)c(=O)[nH]1` [5-Fluorouracil], for which, in test [1], the CC50 was determined as 29000 ± 10700 nM and the IC80 came out at 100000 ± 10 nM. Further, the Cell cycle profile entry in test [2] was “S-phase”.

What is called IC50 is the concentration that gives 50% inhibition. With `CC[C@@]1(O)C(=O)OCc2c1cc1n(c2=O)Cc2cc3ccccc3nc2-1` [CPT, Camptothecin, reference compound], the IC50 was 900 ± 210 nM in [3]; 25 ± 7 nM in test [4]; 35 ± 7 nM in test [5]; 30 ± 3 nM in [6]; 27 ± 2 nM in test [7]; 100 ± 2 nM in test [8]. Further, in [9], the IC50 stood at 25 ± 6 nM. Half-maximal cytotoxicity in test [1] (CC50) was put at 30 ± 2 nM. Besides, the IC80 in test [1] amounted to 100 ± 2 nM. In test [10], this compound came in with an early-apoptotic cells of 34%. In test [10], the late-apoptosis/necrosis amounted to 39%. Further, in test [11], the “apoptosis (sub-G0/G1 population)” value was 30%. The “early plus late apoptotic cells” value in test [12] was 59%.
